Data as given in patent US7648999B2, “Activator for peroxisome proliferator-activated receptor δ” (Nippon Chemiphar Co., Ltd., priority 2007, dated 2010).
Like-named read-outs stand apart in the source and are kept apart here.

How the values were obtained:
db/db mice = experiment: HDL cholesterol elevating effect in db/db mice; format: in vivo; settings: for Ratio of increasing HDL cholesterol (% to control): 10 mg/kg/b.i.d. orally for one week, serum 16 hours after final administration; for HDL cholesterol elevating effect (in words): oral, one week twice daily
Procedure: HDL cholesterol elevating effect was measured by using db/db mice, which are hereditary obesity mice. The db/db mice (10 weeks old) were divided into groups based on serum HDL cholesterol levels. […] Mice of the control group (to which no agent was administered) were orally given 1% methyl cellulose solution. After 16 hours from the final administration, blood sample was collected, and serum HDL cholesterol level was measured. HDL cholesterol was separated by electrophoresis on agarose gels (Chol/Trig Combo, Helena Laboratories). […] HDL cholesterol levels were calculated from total cholesterol levels and HDL cholesterol/total cholesterol ratios.
Each value represents as % of the control group.

PPARδ (GAL4-hPPARδ LBD) = biological target: T1, PPARδ (GAL4-hPPARδ LBD) (Homo sapiens, UniProt Q03181); experiment: PPARδ transactivation activity (GAL4 chimera luciferase reporter in CV-1 cells); format: cell-based
T1 construct: A chimeric receptor expression plasmid (GAL4-hPPARδ LBD), a reporter plasmid (UASx4-TK-LUC); expressed in transfected cells; host or cells: CV-1 cells
T1 sequence (Q03181 211-439 limits assumed): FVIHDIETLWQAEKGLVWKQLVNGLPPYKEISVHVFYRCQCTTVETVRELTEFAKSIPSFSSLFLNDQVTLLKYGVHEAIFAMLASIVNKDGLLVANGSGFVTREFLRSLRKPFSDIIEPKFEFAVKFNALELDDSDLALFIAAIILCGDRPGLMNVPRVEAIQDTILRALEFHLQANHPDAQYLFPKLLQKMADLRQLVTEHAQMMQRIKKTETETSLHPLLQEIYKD
Procedure: A chimeric receptor expression plasmid (GAL4-hPPARδ LBD), a reporter plasmid (UASx4-TK-LUC) and β-galactosidase (β-GAL) are transfected into CV-1 cells by utilizing a lipofection reagent DMRIE-C (Life Technologies).
(1) Measurement of PPARα, γ, δ Transactivation Activity
CV-1 cells were obtained from Tohoku University Aging Medical Laboratory, Medical Cell Collection Center. All test compounds were dissolved in dimethylsulfoxide (DMSO). Final concentration of DMSO was 0.1%.
CV-1 cells were seeded in 24 well culture plates at 2×10^5 cells per well, and cultured for 24 hours OPTI-MEM I Reduced Serum Medium (Life Technologies, 500 μL/well) containing 4%-fetal bovine serum (FBS). After washing with OPTI-MEM, transfection mixture (250 μL/well) containing 0.03 μg of GAL4-hPPARδ LBD, 0.25 μg of UASx-4-TK-LUC, 0.35 μg of βGAL, and 2 μL of lipofection reagent, DMRIE-C (Life Technologies) were added. The cells were incubated for 5 hours at 37° C.
The cells were washed and incubated for 40 hours in the presence of the test compound (final concentration was 10^−7M or 10^−6M)
The culture medium was removed and the cells were washed with PBS twice. A solubilizing buffer (100 μL/well) containing 25 mM Tris-PO4 (pH 7.8), 15% v/v glycerol, 2% CHAPS, 1% Lecithin, 1% BSA, 4 mM EGTA (pH 8.0), 8 mM MgCl2, 1 mM DTT was added. After the incubation for 10 minutes at room temperature, a portion (20 μL) of the solution was transferred into a 96-well plate. Subsequently, 100 μL of luciferase substrate solution (Piccagene: available from Nippon Gene Co., Ltd.) was added, and a luminous intensity per one second (luciferase activity) was measured using a microluminoreader (Type MLR-100, Corona Electrics Co., Ltd.). Each luciferase activity was corrected by the transfection efficiency which was calculated from β-galactosidase activity. The assay method of β-galactosidase activity was as follows: A portion (50 μL) of the solubilized sample was transferred into another 96-well plate; 100 μL of ONPG (2-nitrophenyl-β-galactopyranoside) solution was added and incubated for 5 minutes at room temperature. 50 μL of a reaction stopping solution (1M sodium carbonate solution) was added. Then the absorbance at 414 nm was measured.

PPARγ (GAL4-hPPARγ LBD) = biological target: T2, PPARγ (GAL4-hPPARγ LBD) (Homo sapiens, UniProt P37231); experiment: PPARγ transactivation activity (GAL4 chimera luciferase reporter in CV-1 cells); format: cell-based
T2 construct: Receptor expression plasmid (GAL4-hPPARα, LBD GAL4-hPPARγ LBD, GAL4-hPPARδ LBD); expressed in transfected cells; host or cells: CV-1 cells
T2 sequence (P37231 238-503 limits assumed): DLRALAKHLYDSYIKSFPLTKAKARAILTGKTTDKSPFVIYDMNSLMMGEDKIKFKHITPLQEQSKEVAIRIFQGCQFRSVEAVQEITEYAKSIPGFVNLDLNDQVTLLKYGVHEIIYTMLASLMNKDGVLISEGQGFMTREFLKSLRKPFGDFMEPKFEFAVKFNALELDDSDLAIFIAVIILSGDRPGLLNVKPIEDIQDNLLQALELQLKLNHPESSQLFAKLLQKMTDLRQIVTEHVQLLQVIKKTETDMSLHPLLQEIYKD

PPARα (GAL4-hPPARα LBD) = biological target: T3, PPARα (GAL4-hPPARα LBD) (Homo sapiens, UniProt Q07869); experiment: PPARα transactivation activity (GAL4 chimera luciferase reporter in CV-1 cells); format: cell-based
T3 construct: Receptor expression plasmid (GAL4-hPPARα, LBD GAL4-hPPARγ LBD, GAL4-hPPARδ LBD); expressed in transfected cells; host or cells: CV-1 cells
T3 sequence (Q07869 239-466 limits assumed): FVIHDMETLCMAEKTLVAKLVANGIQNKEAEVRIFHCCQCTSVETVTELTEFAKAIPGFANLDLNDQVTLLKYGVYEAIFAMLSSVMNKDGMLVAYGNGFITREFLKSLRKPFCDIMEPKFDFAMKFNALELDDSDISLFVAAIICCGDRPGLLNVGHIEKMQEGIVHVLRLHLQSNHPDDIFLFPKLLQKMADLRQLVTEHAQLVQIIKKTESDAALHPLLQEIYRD

[1] = compound at 10^−6 M (value in parentheses)
[2] = compound at 10^−7 M (value without parentheses)

Molecule	Relative activity for PPAR transactivation, δ (PPARδ (GAL4-hPPARδ LBD); [2])	Relative activity for PPAR transactivation, γ (PPARγ (GAL4-hPPARγ LBD); [2])	Relative activity for PPAR transactivation, α (PPARα (GAL4-hPPARα LBD); [2])	other results
Cc1cc(C(=O)CCc2sc(-c3ccc(C(F)(F)F)cc3)nc2C(C)C)ccc1OC(C)(C)C(=O)O [Example 4, 2-[4-[3-[2-(4-Trifluoromethyl)phenyl-4-isopropyl-5-thiazolyl]propionyl]-2-methylphenoxy]-2-methylpropionic acid]	–	–	–	Ratio of increasing HDL cholesterol (% to control) (db/db mice): 176 % to control; HDL cholesterol elevating effect (in words) (db/db mice): excellent effect of increasing HDL cholesterol; Relative activity for PPAR transactivation, δ (PPARδ (GAL4-hPPARδ LBD); compound at 10^−7 M, CV-1 cells, 40 hours, positive control 10^−4 M L-165041 = 100%): 86 % of control; Relative activity for PPAR transactivation, γ (PPARγ (GAL4-hPPARγ LBD); compound at 10^−7 M, CV-1 cells, 40 hours, positive control 10^−5 M Rosiglitazone = 100%): 12 % of control; Relative activity for PPAR transactivation, α (PPARα (GAL4-hPPARα LBD); compound at 10^−7 M, CV-1 cells, 40 hours, positive control 10^−4 M WY-14643 = 100%): 11 % of control
CCCCCCc1nc(-c2ccc(C(F)(F)F)cc2)sc1CCC(=O)c1ccc(C)c(OC(C)(C)C(=O)O)c1 [Example 46, 2-[5-[3-[4-Hexyl-2-(4-trifluoromethyl)phenyl-5-thiazolyl]propionyl]-2-methylphenoxy]-2-methylpropionic acid]	–	–	–	Relative activity for PPAR transactivation, δ (PPARδ (GAL4-hPPARδ LBD); [1]): (46) % of control; Relative activity for PPAR transactivation, γ (PPARγ (GAL4-hPPARγ LBD); [1]): (69) % of control; Relative activity for PPAR transactivation, α (PPARα (GAL4-hPPARα LBD); [1]): (78) % of control
C=CCc1cc(C(=O)CCc2sc(-c3ccc(C(F)(F)F)cc3)nc2C(C)C)ccc1OCC(=O)O [Example 19, 2-Allyl-4-[3-[4-isopropyl-2-(4-trifluoromethyl)phenyl-5-thiazolyl]propionyl]phenoxyacetic acid]	86 % of control	2 % of control	0 % of control	–
Cc1cc(C=CCc2sc(-c3ccc(C(F)(F)F)cc3)nc2C(C)C)ccc1OCC(=O)O [Example 10, [4-[3-[4-Isopropyl-2-(4-trifluoromethyl)phenyl-5-thiazolyl]-1-propenyl]-2-methylphenoxy]acetic acid]	67 % of control	1 % of control	0 % of control	Ratio of increasing HDL cholesterol (% to control) (db/db mice): 134 % to control; HDL cholesterol elevating effect (in words) (db/db mice): excellent effect of increasing HDL cholesterol
Cc1cc(OCC(=O)O)ccc1C(=O)CCc1sc(-c2ccc(C(F)(F)F)cc2)nc1C(C)C [Example 14, [4-[3-[4-Isopropyl-2-(4-trifluoromethyl)phenyl-5-thiazolyl]propionyl]-3-methylphenoxy]acetic acid]	42 % of control	0 % of control	0 % of control	–
4-[3-[4-Methyl-2-(4-trifluoromethyl)phenyl-5-thiazolyl]propionyl]-2-methylphenoxy]acetic acid [Example 44]	–	–	–	PPARδ transactivation activity / activating effect (in words) (PPARδ (GAL4-hPPARδ LBD)): inferior in the PPARδ transactivation activity; Relative activity for PPAR transactivation, δ (PPARδ (GAL4-hPPARδ LBD)): (38) % of control; Relative activity for PPAR transactivation, γ (PPARγ (GAL4-hPPARγ LBD)): (0) % of control; Relative activity for PPAR transactivation, α (PPARα (GAL4-hPPARα LBD)): (0) % of control

Now from value to molecule, other results behind:

Relative activity for PPAR transactivation, δ (PPARδ (GAL4-hPPARδ LBD); [2])	Relative activity for PPAR transactivation, γ (PPARγ (GAL4-hPPARγ LBD); [2])	Relative activity for PPAR transactivation, α (PPARα (GAL4-hPPARα LBD); [2])	Molecule	other results
44 % of control	1 % of control	0 % of control	CC(C)c1nc(-c2ccc(C(F)(F)F)cc2)sc1CCC(=O)c1ccc(OCC(=O)O)c(Cl)c1 [Example 33, [4-[3-[4-Isopropyl-2-(4-trifluoromethyl)phenyl-5-thiazolyl]propionyl]-2-chlorophenoxy]acetic acid]	–
57 % of control	3 % of control	62 % of control	Cc1cc(OC(C)(C)C(=O)O)ccc1C(=O)CCc1sc(-c2ccc(C(F)(F)F)cc2)nc1C(C)C [Example 16, [4-[3-[4-Isopropyl-2-(4-trifluoromethyl)phenyl-5-thiazolyl]propionyl]-3-methylphenoxy]-2-methylpropionic acid]	–
75 % of control	0 % of control	0 % of control	Cc1cc(C(=O)C=Cc2sc(-c3ccc(C(F)(F)F)cc3)nc2C(C)C)ccc1OCC(=O)O [Example 24, [4-[3-[4-Isopropyl-2-(4-trifluoromethyl)phenyl-5-thiazolyl]propenoyl]-2-methylphenoxy]acetic acid]	–
